Data from patent US20250296953A1, “3,4-THIAZOLO-STEROIDS AND METHODS OF MAKING AND USING THE SAME” (Arkansas State University - Jonesboro, priority 2018, published 2025).
Where two headings read alike, the source gives them in different places.

Tests used:
[1] = system: SK-MEL-25; experiment: Melanoma cytotoxicity assay (resazurin); format: cell-based
Procedure, shortened: (§1)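 Cells are plated at roughly 4000 per well and allowed 24 h before compound addition in triplicate. After a further 24 h, resazurin is added for 6 h and fluorescence measured; percent viability is normalized to DMSO-treated wells.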

[2] = system: SK-MEL-28; experiment: Melanoma cytotoxicity assay (resazurin); format: cell-based
Procedure, shortened: as §1

[3] = system: SR; experiment: NCI 60 five dose screen; conditions: for CC50: read-out: LC50
[4] = system: 60 different human tumor cell lines; experiment: NCI Development Therapeutics Program 60 cell line screen, one dose; format: cell-based
[5] = system: SF-539; experiment: NCI 60 one dose screen; format: cell-based, human; conditions: one dose; CNS Cancer; SF-539
[6] = Non-small Cell Lung Cancer, A549/ATCC
[7] = Non-small Cell Lung Cancer, EKVX
[8] = Non-small Cell Lung Cancer, HOP-62
[9] = Non-small Cell Lung Cancer, HOP-92
[10] = Non-small Cell Lung Cancer, NCI-H23
[11] = Non-small Cell Lung Cancer, NCI-H226
[12] = Non-small Cell Lung Cancer, NCI-H322M
[13] = Non-small Cell Lung Cancer, NCI-H460

## (1S,2R,13R,14S,18S)-7-(3-fluoroanilino)-2,18-dimethyl-6-thia-8-azapentacyclo[11.7.0.02,10.05,9.014,18]icosa-5(9),7,10-trien-17-one [IIa.8]
[1]; SK-MEL-25 melanoma cells, 24 hours with compound, resazurin, concentration not given
  SK-MEL-25 (% inhibition): 88%
[1]; SK-MEL-25 melanoma cells, 24 hours, resazurin, read-out: SK-MEL-25 (IC50)
  IC50: 10 µM
[2]; SK-MEL-28 melanoma cells, 24 hours with compound, resazurin, concentration not given
  SK-MEL-28 (% inhibition): 90%
[2]; SK-MEL-28 melanoma cells, 24 hours, resazurin
  IC50: > 20 µM
[3]; SR (Leukemia), five dose
  GI50: 0.859 µM
  CC50: > 100 µM
[3]; leukemia cell line SR
  50% growth inhibition (GI50): submicromolar
[4]; Breast Cancer, BT-549
  Growth Percent: −8.61%
[4]; Breast Cancer, HS 578T
  Growth Percent: 35.44%
[4]; Breast Cancer, MCF7
  Growth Percent: 4.46%
[4]; Breast Cancer, MDA-MB-231/ATCC
  Growth Percent: 38.20%
[4]; Breast Cancer, MDA-MB-468
  Growth Percent: −2.99%
[4]; Breast Cancer, T-47D
  Growth Percent: −0.76%
[4]; CNS Cancer, SF-268
  Growth Percent: 55.66%
[4]; CNS Cancer, SNB-19
  Growth Percent: 62.83%
[4]; CNS Cancer, SNB-75
  Growth Percent: 18.66%
[4]; CNS Cancer, U251
  Growth Percent: 15.66%
[4]; Colon Cancer, COLO 205
  Growth Percent: 47.59%
[4]; Colon Cancer, HCC-2998
  Growth Percent: 75.50%
[4]; Colon Cancer, HCT-116
  Growth Percent: −68.78%
[4]; Colon Cancer, HT29
  Growth Percent: −3.32%
[4]; Colon Cancer, KM12
  Growth Percent: 38.74%
[4]; Colon Cancer, SW-620
  Growth Percent: 4.62%
[4]; Leukemia, CCRF-CEM
  Growth Percent: 4.95%
[4]; Leukemia, HL-60(TB)
  Growth Percent: 8.58%
[4]; Leukemia, K-562
  Growth Percent: −0.51%
[4]; Leukemia, MOLT-4
  Growth Percent: −3.78%
[4]; Leukemia, RPMI-8226
  Growth Percent: −22.26%
[4]; Leukemia, SR
  Growth Percent: −11.87%
[4]; Melanoma, LOX IMVI
  Growth Percent: 6.22%
[4]; Melanoma, M14
  Growth Percent: 44.82%
[4]; Melanoma, MALME-3M
  Growth Percent: 22.82%
[4]; Melanoma, MDA-MB-435
  Growth Percent: 35.93%
[4]; Melanoma, SK-MEL-2
  Growth Percent: 21.81%
[4]; Melanoma, SK-MEL-5
  Growth Percent: 32.06%
[4]; Melanoma, SK-MEL-28
  Growth Percent: 39.44%
[4]; Melanoma, UACC-62
  Growth Percent: 37.50%
[4]; Melanoma, UACC-257
  Growth Percent: 73.04%
[4]; [6]
  Growth Percent: 35.39%
[4]; [7]
  Growth Percent: 46.43%
[4]; [8]
  Growth Percent: 20.40%
[4]; [9]
  Growth Percent: 68.93%
[4]; [10]
  Growth Percent: 55.09%
[4]; [11]
  Growth Percent: 71.91%
[4]; [12]
  Growth Percent: 55.83%
[4]; [13]
  Growth Percent: 51.98%
[4]; Ovarian Cancer, IGROV1
  Growth Percent: 60.02%
[4]; Ovarian Cancer, NCI/ADR-RES
  Growth Percent: 55.43%
[4]; Ovarian Cancer, OVCAR-3
  Growth Percent: −5.24%
[4]; Ovarian Cancer, OVCAR-4
  Growth Percent: 59.21%
[4]; Ovarian Cancer, OVCAR-5
  Growth Percent: 65.53%
[4]; Ovarian Cancer, OVCAR-8
  Growth Percent: 39.56%
[4]; Ovarian Cancer, SK-OV-3
  Growth Percent: −18.44%
[4]; Prostate Cancer, DU-145
  Growth Percent: 17.23%
[4]; Renal Cancer, 786-0
  Growth Percent: −13.93%
[4]; Renal Cancer, A498
  Growth Percent: 22.95%
[4]; Renal Cancer, ACHN
  Growth Percent: 1.56%
[4]; Renal Cancer, CAKI-1
  Growth Percent: 50.45%
[4]; Renal Cancer, RXF 393
  Growth Percent: −28.44%
[4]; Renal Cancer, SN12C
  Growth Percent: 28.50%
[4]; Renal Cancer, TK-10
  Growth Percent: 20.27%
[4]; Renal Cancer, UO-31
  Growth Percent: −26.89%
[5]
  Growth Percent: −5.93%

## C[C@]12CC[C@H]3[C@@H](CC=C4c5sc(Nc6ccccc6)nc5CC[C@@]43C)[C@@H]1CC[C@@H]2O [IIIa.10, (1S,2R,13R,14S,17S,18S)-7-anilino-2,18-dimethyl-8-thia-6-azapentacyclo[11.7.0.02,10.05,9.014,18]icosa-5(9),6,10-trien-17-ol]
[1]; Homo sapiens, SK-MEL-25 melanoma cells (head prints SK-25), read-out: SK-25 IC50
  IC50: > 20 µM
[1]; human, 24 h
  SK-MEL-25 (% viability): 13.15%
[2]; human, 24 h
  SK-MEL-28 (% viability): 13.79%
[3]; Homo sapiens, SR
  GI50: 0.241 µM
  CC50: > 100 µM
[3]; SR (Leukemia), five dose
  TGI: 6.10E−6
[4]; Breast Cancer, BT-549
  Growth Percent: 19.16%
[4]; Breast Cancer, HS 578T
  Growth Percent: 3.65%
[4]; Breast Cancer, MCF7
  Growth Percent: 29.18%
[4]; Breast Cancer, MDA-MB-231/ATCC
  Growth Percent: 35.75%
[4]; Breast Cancer, MDA-MB-468
  Growth Percent: −1.00%
[4]; Breast Cancer, T-47D
  Growth Percent: 16.35%
[4]; CNS Cancer, SF-268
  Growth Percent: 9.68%
[4]; CNS Cancer, SNB-19
  Growth Percent: 26.54%
[4]; CNS Cancer, SNB-75
  Growth Percent: −5.43%
[4]; CNS Cancer, U251
  Growth Percent: −30.05%
[4]; Colon Cancer, COLO 205
  Growth Percent: 57.13%
[4]; Colon Cancer, HCC-2998
  Growth Percent: 98.16%
[4]; Colon Cancer, HCT-116
  Growth Percent: −81.48%
[4]; Colon Cancer, HT29
  Growth Percent: −38.50%
[4]; Colon Cancer, KM12
  Growth Percent: 15.64%
[4]; Colon Cancer, SW-620
  Growth Percent: −19.44%
[4]; Leukemia, CCRF-CEM
  Growth Percent: 0.74%
[4]; Leukemia, HL-60(TB)
  Growth Percent: 15.69%
[4]; Leukemia, K-562
  Growth Percent: 4.96%
[4]; Leukemia, MOLT-4
  Growth Percent: 6.79%
[4]; Leukemia, RPMI-8226
  Growth Percent: −32.33%
[4]; Leukemia, SR
  Growth Percent: 8.06%
[4]; Melanoma, LOX IMVI
  Growth Percent: −81.48%
[4]; Melanoma, M14
  Growth Percent: 53.44%
[4]; Melanoma, MALME-3M
  Growth Percent: 71.16%
[4]; Melanoma, MDA-MB-435
  Growth Percent: 3.47%
[4]; Melanoma, SK-MEL-2
  Growth Percent: 51.68%
[4]; Melanoma, SK-MEL-5
  Growth Percent: 34.54%
[4]; Melanoma, SK-MEL-28
  Growth Percent: 27.28%
[4]; Melanoma, UACC-62
  Growth Percent: 39.84%
[4]; Melanoma, UACC-257
  Growth Percent: 69.33%
[4]; [6]
  Growth Percent: 57.08%
[4]; [7]
  Growth Percent: 73.21%
[4]; [8]
  Growth Percent: 34.18%
[4]; [9]
  Growth Percent: 103.92%
[4]; [10]
  Growth Percent: 67.34%
[4]; [11]
  Growth Percent: 63.92%
[4]; [12]
  Growth Percent: 78.38%
[4]; [13]
  Growth Percent: 6.06%
[4]; Ovarian Cancer, IGROV1
  Growth Percent: 11.15%
[4]; Ovarian Cancer, NCI/ADR-RES
  Growth Percent: 36.29%
[4]; Ovarian Cancer, OVCAR-3
  Growth Percent: −31.62%
[4]; Ovarian Cancer, OVCAR-4
  Growth Percent: 64.10%
[4]; Ovarian Cancer, OVCAR-5
  Growth Percent: 92.21%
[4]; Ovarian Cancer, OVCAR-8
  Growth Percent: −8.95%
[4]; Ovarian Cancer, SK-OV-3
  Growth Percent: 89.65%
[4]; Prostate Cancer, DU-145
  Growth Percent: 14.25%
[4]; Prostate Cancer, PC-3
  Growth Percent: 39.21%
[4]; Renal Cancer, 786-0
  Growth Percent: −49.68%
[4]; Renal Cancer, ACHN
  Growth Percent: 36.78%
[4]; Renal Cancer, CAKI-1
  Growth Percent: 49.02%
[4]; Renal Cancer, RXF 393
  Growth Percent: −32.33%
[4]; Renal Cancer, SN12C
  Growth Percent: 10.11%
[4]; Renal Cancer, TK-10
  Growth Percent: 65.01%
[4]; Renal Cancer, UO-31
  Growth Percent: 26.06%
[5]
  Growth Percent: −34.31%
